US9271971B2, “Pyrido[3,4-B]indoles and methods of use” (Medivation Technologies, Inc., priority 2009, dated 2016)

Tests used:
[1] = biological target: T1, human recombinant adrenergic α2A receptor (Homo sapiens, UniProt P08913); experiment: Adrenergic α2A radioligand binding assay; conditions: [3H]MK-912 specific binding; for inhibition at 1 µM: read-out: Percent Inhibition of ligand binding, Adrenergic (1 μM ligand conc.) α2A; for inhibition at 0.1 µM: read-out: Percent Inhibition of ligand binding, Adrenergic (0.1 μM ligand conc.) α2A
T1 construct: expressed in transfected cells; host or cells: insect Sf9 cells
T1 sequence (P08913 1-465): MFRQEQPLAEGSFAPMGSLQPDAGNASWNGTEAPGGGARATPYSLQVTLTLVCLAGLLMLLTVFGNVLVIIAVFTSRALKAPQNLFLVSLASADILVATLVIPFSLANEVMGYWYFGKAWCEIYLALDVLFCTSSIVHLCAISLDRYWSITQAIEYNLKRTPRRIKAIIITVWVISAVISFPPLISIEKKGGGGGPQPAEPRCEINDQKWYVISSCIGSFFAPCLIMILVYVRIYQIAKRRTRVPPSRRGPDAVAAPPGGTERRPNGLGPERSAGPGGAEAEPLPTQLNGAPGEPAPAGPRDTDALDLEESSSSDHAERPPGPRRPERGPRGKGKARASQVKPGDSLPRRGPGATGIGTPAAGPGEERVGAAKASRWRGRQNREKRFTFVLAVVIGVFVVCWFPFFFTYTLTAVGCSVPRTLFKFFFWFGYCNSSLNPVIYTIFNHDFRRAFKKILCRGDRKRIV
Method: To evaluate in radioligand binding assays the activity of compounds of the invention, human recombinant adrenergic α2A receptor expressed in insect Sf9 cells [Uhlen, S et al. J. Pharmacol. Exp. Ther. (1994), 271:1558] in a modified Tris-HCl buffer (50 mM Tris-HCl, pH 7.4, 12.5 mM MgCl2, 2 mM EDTA) was used. Compounds of invention were incubated with 1 nM [^3H]MK-912 for 60 min. at 25° C. MK912 was (2S-trans)-1,3,4,5′,6,6′,7,12b-octahydro-1′,3′-dimethyl-spiro[2H-benzofuro[2,3-a]quinolizine-2,4′(1′H)-pyrimidin]-2′(3′H)-one hydrochloride Non-specific binding was estimated in the presence of 10 μM WB-4101 (2-(2,6-dimethoxyphenoxyethyl)aminomethyl-1,4-benzodioxane hydrochloride). Receptor proteins were filtered and washed, the filters were then counted to determine [^3H]MK-912 specifically bound. Compounds were screened at 1 μM or lower, using 1% DMSO as vehicle. Compounds of the invention were tested in this biochemical assay. Biochemical assay results for representative compounds were presented as the percent inhibition of specific binding in Table 3.

[2] = biological target: T2, human recombinant serotonin (5-Hydroxytryptamine) 5-HT2C receptor (Homo sapiens, UniProt P28335); experiment: Serotonin 5-HT2C radioligand binding assay; conditions: [3H]Mesulergine specific binding; for inhibition at 1 µM: read-out: Percent Inhibition of ligand binding, Serotonin (1 μM ligand concentration) 5-HT2C
T2 construct: expressed in transfected cells; host or cells: Chinese hamster ovary (CHO-K1) cells
T2 sequence (P28335 33-458): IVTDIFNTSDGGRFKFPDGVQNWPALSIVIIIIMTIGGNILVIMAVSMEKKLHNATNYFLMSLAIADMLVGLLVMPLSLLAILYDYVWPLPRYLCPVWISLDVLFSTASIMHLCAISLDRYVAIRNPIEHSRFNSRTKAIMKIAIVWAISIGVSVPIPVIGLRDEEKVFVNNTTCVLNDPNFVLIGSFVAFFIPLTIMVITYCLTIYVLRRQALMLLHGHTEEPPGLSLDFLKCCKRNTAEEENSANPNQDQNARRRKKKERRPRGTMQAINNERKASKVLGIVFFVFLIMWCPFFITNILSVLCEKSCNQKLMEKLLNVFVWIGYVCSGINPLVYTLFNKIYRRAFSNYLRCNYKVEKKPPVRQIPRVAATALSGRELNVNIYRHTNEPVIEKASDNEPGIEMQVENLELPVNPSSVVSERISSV
Method: To evaluate in radioligand binding assays the activity of compounds of the invention, human recombinant serotonin (5-Hydroxytryptamine) 5-HT2C receptor expressed in Chinese hamster ovary (CHO-K1) cells [Wolf, W. A. et al., J. Neurochem. (1997), 69:1449] in a modified Tris-HCl buffer (50 mM Tris-HCl, pH 7.4, 0.1% Ascorbic Acid, 10 μM Pargyline) was used. Compounds of the invention were incubated with 1 nM [^3H]Mesulergine for 60 min. at 25° C. Non-specific binding was estimated in the presence of 1 μM Mianserin. Receptor proteins were filtered and washed, the filters were then counted to determine [^3H]Mesulergine specifically bound. Compounds were screened at 1 μM or lower, using 1% DMSO as vehicle. Biochemical assay results are presented as the percent inhibition of specific binding in Table 4.

[3] = biological target: T3, human recombinant serotonin (5-Hydroxytryptamine) 5-HT6 receptor (Homo sapiens, UniProt P50406); experiment: Serotonin 5-HT6 radioligand binding assay; conditions: [3H]LSD specific binding; for inhibition at 1 µM: read-out: Percent Inhibition of ligand binding, Serotonin (1 μM ligand concentration) 5-HT6
T3 construct: expressed in transfected cells; host or cells: human HeLa cells
T3 sequence (P50406 whole entry): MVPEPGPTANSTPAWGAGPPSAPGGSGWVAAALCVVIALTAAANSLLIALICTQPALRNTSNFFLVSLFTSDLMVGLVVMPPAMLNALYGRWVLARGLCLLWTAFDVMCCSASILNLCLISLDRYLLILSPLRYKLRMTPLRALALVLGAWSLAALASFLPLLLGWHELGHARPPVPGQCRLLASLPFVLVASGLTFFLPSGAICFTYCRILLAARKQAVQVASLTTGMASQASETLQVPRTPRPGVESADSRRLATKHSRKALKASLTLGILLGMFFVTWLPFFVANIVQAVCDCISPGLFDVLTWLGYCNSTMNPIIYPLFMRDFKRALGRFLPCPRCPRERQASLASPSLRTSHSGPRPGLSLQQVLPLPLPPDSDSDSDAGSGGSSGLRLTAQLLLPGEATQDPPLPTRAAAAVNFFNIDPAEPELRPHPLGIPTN
Method: To evaluate in radioligand binding assays the activity of compounds of the invention, human recombinant serotonin (5-Hydroxytryptamine) 5-HT6 receptor expressed in human HeLa cells [Monsma, F. J. Jr et al., Mol. Pharmacol. (1993), 43:320] in a modified Tris-HCl buffer (50 mM Tris-HCl, pH 7.4, 150 mM NaCl, 2 mM Ascorbic Acid, 0.001% BSA) was used. Compounds of the invention were incubated with 1.5 nM [3H]Lysergic acid diethylamide (LSD) for 120 min. at 37° C. Non-specific binding was estimated in the presence of 5 μM Serotonin (5-HT). Receptor proteins were filtered and washed, the filters were then counted to determine[3H]LSD specifically bound. Compounds were screened at 1 μM or lower, using 1% DMSO as vehicle. Biochemical assay results are presented as the percent inhibition of specific binding in Table 4.

[4] = biological target: T4, human recombinant histamine H2 receptor (Homo sapiens, UniProt P25021); experiment: Histamine H2 radioligand binding assay; conditions: [125I]Aminopotentidine specific binding; for inhibition at 1 µM: read-out: Percentage Inhibition, Histamine Binding (1 μM) H2
T4 construct: expressed in transfected cells; host or cells: Chinese hamster ovary (CHO) K1 cells
T4 sequence (P25021 whole entry): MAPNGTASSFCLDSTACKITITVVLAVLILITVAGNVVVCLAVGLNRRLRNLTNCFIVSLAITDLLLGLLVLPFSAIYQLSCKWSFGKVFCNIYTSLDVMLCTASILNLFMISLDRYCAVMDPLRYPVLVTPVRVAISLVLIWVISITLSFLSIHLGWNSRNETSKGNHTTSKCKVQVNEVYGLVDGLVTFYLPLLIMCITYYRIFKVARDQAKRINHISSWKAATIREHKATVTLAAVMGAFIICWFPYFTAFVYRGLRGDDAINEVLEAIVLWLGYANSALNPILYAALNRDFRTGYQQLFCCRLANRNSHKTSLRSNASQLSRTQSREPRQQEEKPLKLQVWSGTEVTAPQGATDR
Method: To evaluate in radioligand binding assays the activity of compounds of the invention, human recombinant histamine H2 receptor expressed in Chinese hamster ovary (CHO) K1 cells [Ruat, M., Proc. Natl. Acad. Sci. USA. (1990), 87(5):1658] in a 50 mM Phosphate buffer, pH 7.4 was used. Compounds of the invention were incubated with 0.1 nM [^125I]Aminopotentidine for 120 min. at 25° C. Non-specific binding was estimated in the presence of 3 μM Tiotidine. Receptor proteins were filtered and washed, the filters were then counted to determine [^125I]Aminopotentidine specifically bound. Compounds were screened at 1 μM or lower, using 1% DMSO as vehicle. Biochemical assay results are presented as the percent inhibition of specific binding in Table 2.

COc1ccc(C(O)Cn2c3c(c4cc(C)ccc42)C2CCN(C3)C2)cc1F (centres unmarked) [Compound 6]
inhibition at 1 µM ([1]; 1 μM): 23%
inhibition at 1 µM [2]: 43%
inhibition at 1 µM [3]: 22%
inhibition at 1 µM [4]: -5%

Cc1ccc2c(c1)c1c(n2CCc2ccc(C)nc2)CN2CCC1C2 (centres unmarked) [Compound 12]
inhibition at 1 µM ([1]; 1 μM): -4%
inhibition at 1 µM [2]: 5%
inhibition at 1 µM [3]: 2%
inhibition at 1 µM [4]: 4%

Cc1ccc2c(c1)c1c(n2CC(=O)c2ccc(Cl)cc2)CN2CCC1C2 (centres unmarked) [Compound 29]
inhibition at 1 µM ([1]; 1 μM): 89%
inhibition at 1 µM [2]: 74%
inhibition at 1 µM [3]: 32%
inhibition at 1 µM [4]: 19%

COc1ccc(C(O)Cn2c3c(c4cc(C)ccc42)C2CCN(C3)C2)cc1OC (centres unmarked) [Compound 8]
inhibition at 1 µM ([1]; 1 μM): 1%
inhibition at 1 µM [2]: 12%
inhibition at 1 µM [3]: 11%
inhibition at 1 µM [4]: 2%

Cc1ccc2c(c1)c1c(n2CCc2ccncc2)CN2CCC1C2 (centres unmarked) [Compound 30]
inhibition at 1 µM ([1]; 1 μM): 84%
inhibition at 1 µM [2]: 85%
inhibition at 1 µM [3]: 33%
inhibition at 1 µM [4]: 18%

C/C(=C\n1c2c(c3cc(C)ccc31)C1CCN(C2)C1)c1ccc(F)cc1 (centres unmarked) [Compound 22]
inhibition at 1 µM ([1]; 1 μM): 93%
inhibition at 1 µM [2]: 96%
inhibition at 1 µM [3]: 102%
inhibition at 1 µM [4]: 15%

COc1ccc(/C(C)=C/n2c3c(c4cc(C)ccc42)C2CCN(C3)C2)cc1F (centres unmarked) [Compound 41]
inhibition at 1 µM [2]: 97%
inhibition at 1 µM [3]: 48%
inhibition at 1 µM [4]: 24%

Cc1ccc2c(c1)c1c(n2CC(=O)N2CCC(C)CC2)CN2CCC1C2 (centres unmarked) [Compound 25]
inhibition at 1 µM ([1]; 1 μM): -7%
inhibition at 1 µM [2]: 15%
inhibition at 1 µM [3]: -2%
inhibition at 1 µM [4]: -4%

Cc1ccc2c(c1)c1c(n2C(=O)Cc2ccc(Cl)cc2)CN2CCC1C2 (centres unmarked) [Compound 36]
inhibition at 0.1 µM [1]: 24%
inhibition at 1 µM [2]: 89%
inhibition at 1 µM [3]: 38%
inhibition at 1 µM [4]: 20%

Cc1ccc2c(c1)c1c(n2CC(C)(O)c2ccc(F)cc2)CN2CCC1C2 (centres unmarked) [Compound 2]
inhibition at 1 µM ([1]; 1 μM): 54%
inhibition at 1 µM [2]: 57%
inhibition at 1 µM [3]: 58%
inhibition at 1 µM [4]: 8%

Cc1ccc2c(c1)c1c(n2CC(=O)N(C)C)CN2CCC1C2 (centres unmarked) [Compound 27]
inhibition at 1 µM ([1]; 1 μM): 5%
inhibition at 1 µM [2]: -1%
inhibition at 1 µM [3]: 5%
inhibition at 1 µM [4]: -3%

Cc1ccc(C(O)Cn2c3c(c4cc(C)ccc42)C2CCN(C3)C2)cc1 (centres unmarked) [Compound 5]
inhibition at 1 µM ([1]; 1 μM): 44%
inhibition at 1 µM [2]: 53%
inhibition at 1 µM [3]: 14%
inhibition at 1 µM [4]: 4%

Cc1ccc2c(c1)c1c(n2CC(=O)c2ccc(F)cc2)CN2CCC1C2 (centres unmarked) [Compound 28]
inhibition at 1 µM ([1]; 1 μM): 86%
inhibition at 1 µM [2]: 83%
inhibition at 1 µM [3]: 15%
inhibition at 1 µM [4]: 18%

COc1ccc(/C(C)=C/n2c3c(c4cc(C)ccc42)C2CCN(C3)C2)cc1 (centres unmarked) [Compound 45]
inhibition at 0.1 µM [1]: 4%
inhibition at 1 µM [2]: 98%
inhibition at 1 µM [3]: 80%
inhibition at 1 µM [4]: 21%

C/C(=C\n1c2c(c3cc(C)ccc31)C1CCN(C2)C1)c1ccc(Cl)cc1Cl (centres unmarked) [Compound 34]
Percent Inhibition of ligand binding, Adrenergic (1 μM ligand conc.) α2A ([1]; 1 μM): 48%
Percent Inhibition of ligand binding, Serotonin (1 μM ligand concentration) 5-HT2C [2]: 99%
Percent Inhibition of ligand binding, Serotonin (1 μM ligand concentration) 5-HT6 [3]: 21%
Percentage Inhibition, Histamine Binding (1 μM) H2 ([4]; 1 µM): 40%

Cc1ccc2c(c1)c1c(n2CC(=O)N2CCCCC2)CN2CCC1C2 (centres unmarked) [Compound 7]
inhibition at 1 µM ([1]; 1 μM): 9%
inhibition at 1 µM [2]: 2%
inhibition at 1 µM [3]: 0%
inhibition at 1 µM [4]: -4%

Cc1ccc2c(c1)c1c(n2CCc2cncc(F)c2)CN2CCC1C2 (centres unmarked) [Compound 9]
inhibition at 1 µM ([1]; 1 μM): 2%
inhibition at 1 µM [2]: 4%
inhibition at 1 µM [3]: 40%
inhibition at 1 µM [4]: 6%

C/C(=C/n1c2c(c3cc(C)ccc31)C1CCN(C2)C1)c1ccccc1F (centres unmarked) [Compound 37]
inhibition at 1 µM [2]: 94%
inhibition at 1 µM [3]: 70%
inhibition at 1 µM [4]: 22%

C/C(=C\n1c2c(c3cc(C)ccc31)C1CCN(C2)C1)c1ccncc1 (centres unmarked) [Compound 44]
inhibition at 0.1 µM [1]: -5%
inhibition at 1 µM [2]: 58%
inhibition at 1 µM [3]: 97%
inhibition at 1 µM [4]: -3%

C/C(=C\n1c2c(c3cc(C)ccc31)C1CCN(C2)C1)c1ccc(Cl)cc1Cl (centres unmarked) [Compound 33]
inhibition at 0.1 µM [1]: 13%
inhibition at 1 µM ([1]; 1 μM): 66%
inhibition at 1 µM [2]: 95%
inhibition at 1 µM [3]: 35%
inhibition at 1 µM [4]: 35%

Cc1ccc2c(c1)c1c(n2CCc2nc(-c3ccccc3)cs2)CN2CCC1C2 (centres unmarked) [Compound 19]
inhibition at 1 µM ([1]; 1 μM): -10%
inhibition at 1 µM [2]: 23%
inhibition at 1 µM [3]: 9%
inhibition at 1 µM [4]: -9%

Cc1ccc2c(c1)c1c(n2C#Cc2ccc(Cl)cc2)CN2CCC1C2 (centres unmarked) [Compound 35]
inhibition at 1 µM [2]: 94%
inhibition at 1 µM [3]: 12%
inhibition at 1 µM [4]: 19%

Cc1ccc2c(c1)c1c(n2C(=O)Cc2ccc(F)cc2)CN2CCC1C2 (centres unmarked) [Compound 43]
inhibition at 1 µM [2]: 66%
inhibition at 1 µM [3]: 7%
inhibition at 1 µM [4]: 7%

C/C(=C\n1c2c(c3cc(C)ccc31)C1CCN(C2)C1)c1ccc(Cl)c(Cl)c1 (centres unmarked) [Compound 40]
inhibition at 1 µM [2]: 89%
inhibition at 1 µM [3]: 12%
inhibition at 1 µM [4]: 39%

C/C(=C\n1c2c(c3cc(C)ccc31)C1CCN(C2)C1)c1ccc(F)c(F)c1 (centres unmarked) [Compound 39]
inhibition at 1 µM [2]: 94%
inhibition at 1 µM [3]: 81%
inhibition at 1 µM [4]: 20%

C/C(=C\n1c2c(c3cc(C)ccc31)C1CCN(C2)C1)c1cccnc1 (centres unmarked) [Compound 42]
inhibition at 1 µM [2]: 64%
inhibition at 1 µM [3]: 26%
inhibition at 1 µM [4]: 1%
